From patent publication EP0731697B1, “SSI TYRPHOSTINS AND PHARMACEUTICAL COMPOSITIONS” (priority 1993, dated 1995)
Like-named read-outs stand apart in the source and are kept apart here.

Experiments:
[1] = system: Murine fibroblastic cells (A9); conditions: for Protection Against TNF-α-Induced Cytotoxicity (cell viability): 1440 min
Protocol: Tyrphostins at different concentration were added 2 hr prior to TNF. After 24 hrs cells viability was determined by vital staining using neutral red.
Recombinant human TNFα is added to a mouse fibroblastic cell line (A9), cultured in the presence of cyclohexamine and cell viability is monitored after 20 hours. […] The percentage of live cells was measured from 2 hours prior to administration until 4 hours after administration for a control and for TNF at concentrations of 0.2 ng/ml, 0.05 ng/ml, and 1.0 ng/ml.

[2] = system: TNF-α; experiment: LPS induced increase in serum TNF-α levels in mice; type: in vivo
Source text: TNF-α was implicated to mediate many of the toxic effect of LPS. For example, the effect of SSI 3 on serum TNF-α levels in mice which had been treated with LPS was investigated. LPS induced a rapid increase in serum TNF-α levels. […] […] The bioassay gave somewhat higher levels compared to the ELISA. This finding may indicate that the serum from LPS-treated mice contained in addition to TNF-α, other cytotoxic factors.
The amount of TNF-α was quantitated by assessing the extent of killing of the TNF-α sensitive cell line (A9) essentially as described by Ruff and Gilford, G. E. J. Immunol. 125, 1671-1677, (1980). Briefly, mouse A9 fibroblasts were plated in 96-well flat-bottom micro-titer plates at 30,000 cells /0.1 ml to establish a dense monolayer. After incubation for 24 hr at 37 C in a humidified 5% CO2 atmosphere, cycloheximide was added to a final concentration of 50 ug/ml and 100 ul of serially diluted test samples were added to the wells. After incubation for additional 18 hr the supernatants were carefully aspirated, the monolayer were washed twice with PBS and 200 ul of neutral red solution (0.02%) was added. After incubation for 2 hr, cells were washed and the dye that had been absorbed by the live cells was extracted using 200 ul of 50% ethanol. The concentration of the dye was determined by an ELISA autoreader using a 550 nm filter. Murine TNF-α ELISA kit from ENDOGEN Inc., was used for quancitation of murine TNF-α.

[3] = system: murine peritoneal macrophages; experiment: NO2- production by periodate-activated murine peritoneal macrophages; type: cell-based
Protocol: Nitrite (NO2-) levels were determined in supernatants at the time indicated, as described herein. (Table 5) Values are expressed as means of triplicate cultures. […] Two additional experiments yielded similar results.
NO2- the product of NO oxidation is used to determine NO produced. Nitrite concentration in supernatants of macrophages was measured by a microplate assay method. 100 ul aliquots of supernatants were incubated with an equal volume of Griess reagent (1% sulfanilamide/O.1% naphthylethylene diamine dihydrochloride/2.5% H3PO4) at room temperature for 10 min. The absorbance at 550nm was determined in a microplate reader. Sodium nitrite was used as a standard.
Mice were injected i.p. with 1 ml sodium periodate (5mM). Three to 4 days later, macrophages were washed from the peritoneal cavity with PBS. After centrifugation at 170g for 10 min at […], the cell pellet was resuspended in RPMI 1640 containing 10% heat-inactivated new born calf serum. Adherent macrophage monolayers were obtained by plating the cells in 96-well plastic trays at 4x10^5 cells/well for 2 hr at 37°C in 5% CO2/air. Nonadherent cells were removed by suction and complete medium was added. […]

[4] = Solubility in aqueous solution; type: physicochemical
[5] = system: mice; experiment: LPS-induced lethal toxicity in mice; conditions: for mice alive after 7 days: 100 ug/mouse 2 hours before or after LPS
[6] = system: TNF-α; experiment: LPS-induced production of TNF-α by activated murine peritoneal macrophages in vitro
Protocol: The amount of TNF-α was quantitated by assessing the extent of killing of the TNF-α sensitive cell line (A9) essentially as described by Ruff and Gilford, G. E. J. Immunol. […] Briefly, mouse A9 fibroblasts were plated in 96-well flat-bottom micro-titer plates at 30,000 cells /0.1 ml to establish a dense monolayer. After incubation for 24 hr at 37 C in a humidified 5% CO2 atmosphere, cycloheximide was added to a final concentration of 50 ug/ml and 100 ul of serially diluted test samples were added to the wells. After incubation for additional 18 hr the supernatants were carefully aspirated, the monolayer were washed twice with PBS and 200 ul of neutral red solution (0.02%) was added. After incubation for 2 hr, cells were washed and the dye that had been absorbed by the live cells was extracted using 200 ul of 50% ethanol. The concentration of the dye was determined by an ELISA autoreader using a 550 nm filter. Murine TNF-α ELISA kit from ENDOGEN Inc., was used for quancitation of murine TNF-α.
Mice were injected i.p. with 1 ml sodium periodate (5mM). Three to 4 days later, macrophages were washed from the peritoneal cavity with PBS. After centrifugation at 170g for 10 min at 40° C, the cell pellet was resuspended in RPMI 1640 containing 10% heat-inactivated new born calf serum. Adherent macrophage monolayers were obtained by plating the cells in 96-well plastic trays at 4x10^5 cells/well for 2 hr at 37°C in 5% CO2/air. Nonadherent cells were removed by suction and complete medium was added.

[7] = molecular target: EGF receptor (Homo sapiens, UniProt P00533); conditions: even at concentrations above 100 uM; cited from earlier work
[8] = molecular target: Her-2/neu receptor (Homo sapiens, UniProt P04626); conditions: even at concentrations above 100 uM; cited from earlier work
[9] = system: PDGFR; conditions: even at concentrations above 100 uM; cited from earlier work
[10] = LPS 200 µg/mouse, AG 300 µg/mouse 2 hrs prior to LPS, 1hr, mean (two single values)
[11] = LPS 200 µg/mouse, AG 300 µg/mouse 2 hrs prior to LPS, 2hr, mean (two single values)
[12] = no LPS (-), AG 300 µg/mouse, 1hr

Sequence of EGF receptor (P00533 25-1210): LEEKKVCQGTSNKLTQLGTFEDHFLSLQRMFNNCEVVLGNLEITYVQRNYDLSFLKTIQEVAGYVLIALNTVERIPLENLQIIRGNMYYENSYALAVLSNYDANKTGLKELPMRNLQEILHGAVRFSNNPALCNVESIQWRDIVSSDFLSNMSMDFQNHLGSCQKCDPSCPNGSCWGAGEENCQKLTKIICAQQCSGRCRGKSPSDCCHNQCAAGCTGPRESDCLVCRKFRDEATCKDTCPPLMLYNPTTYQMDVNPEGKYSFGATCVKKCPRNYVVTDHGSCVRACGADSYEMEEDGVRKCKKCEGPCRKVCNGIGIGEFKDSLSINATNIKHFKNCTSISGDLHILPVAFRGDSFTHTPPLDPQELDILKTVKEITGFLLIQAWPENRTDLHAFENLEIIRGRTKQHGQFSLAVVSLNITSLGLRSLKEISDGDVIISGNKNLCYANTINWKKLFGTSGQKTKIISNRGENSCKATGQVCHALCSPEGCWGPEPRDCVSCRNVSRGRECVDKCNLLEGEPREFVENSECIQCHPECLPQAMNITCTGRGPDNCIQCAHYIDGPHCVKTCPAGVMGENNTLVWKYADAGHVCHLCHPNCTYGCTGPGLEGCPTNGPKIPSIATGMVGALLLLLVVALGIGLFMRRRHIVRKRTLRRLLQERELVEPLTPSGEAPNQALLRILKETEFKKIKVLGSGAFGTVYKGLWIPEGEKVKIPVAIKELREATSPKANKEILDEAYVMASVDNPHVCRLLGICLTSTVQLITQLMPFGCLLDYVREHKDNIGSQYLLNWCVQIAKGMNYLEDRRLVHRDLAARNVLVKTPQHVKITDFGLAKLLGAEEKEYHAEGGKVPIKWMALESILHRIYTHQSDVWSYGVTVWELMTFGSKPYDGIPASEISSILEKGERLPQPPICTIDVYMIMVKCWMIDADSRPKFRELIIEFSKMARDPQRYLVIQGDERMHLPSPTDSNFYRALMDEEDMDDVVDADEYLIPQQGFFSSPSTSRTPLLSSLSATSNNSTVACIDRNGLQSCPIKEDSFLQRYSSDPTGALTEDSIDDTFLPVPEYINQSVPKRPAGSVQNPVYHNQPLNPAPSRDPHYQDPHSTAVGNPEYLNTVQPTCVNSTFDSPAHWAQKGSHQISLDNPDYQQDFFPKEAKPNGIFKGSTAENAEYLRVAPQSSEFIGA
Sequence of Her-2/neu receptor (P04626 23-1255): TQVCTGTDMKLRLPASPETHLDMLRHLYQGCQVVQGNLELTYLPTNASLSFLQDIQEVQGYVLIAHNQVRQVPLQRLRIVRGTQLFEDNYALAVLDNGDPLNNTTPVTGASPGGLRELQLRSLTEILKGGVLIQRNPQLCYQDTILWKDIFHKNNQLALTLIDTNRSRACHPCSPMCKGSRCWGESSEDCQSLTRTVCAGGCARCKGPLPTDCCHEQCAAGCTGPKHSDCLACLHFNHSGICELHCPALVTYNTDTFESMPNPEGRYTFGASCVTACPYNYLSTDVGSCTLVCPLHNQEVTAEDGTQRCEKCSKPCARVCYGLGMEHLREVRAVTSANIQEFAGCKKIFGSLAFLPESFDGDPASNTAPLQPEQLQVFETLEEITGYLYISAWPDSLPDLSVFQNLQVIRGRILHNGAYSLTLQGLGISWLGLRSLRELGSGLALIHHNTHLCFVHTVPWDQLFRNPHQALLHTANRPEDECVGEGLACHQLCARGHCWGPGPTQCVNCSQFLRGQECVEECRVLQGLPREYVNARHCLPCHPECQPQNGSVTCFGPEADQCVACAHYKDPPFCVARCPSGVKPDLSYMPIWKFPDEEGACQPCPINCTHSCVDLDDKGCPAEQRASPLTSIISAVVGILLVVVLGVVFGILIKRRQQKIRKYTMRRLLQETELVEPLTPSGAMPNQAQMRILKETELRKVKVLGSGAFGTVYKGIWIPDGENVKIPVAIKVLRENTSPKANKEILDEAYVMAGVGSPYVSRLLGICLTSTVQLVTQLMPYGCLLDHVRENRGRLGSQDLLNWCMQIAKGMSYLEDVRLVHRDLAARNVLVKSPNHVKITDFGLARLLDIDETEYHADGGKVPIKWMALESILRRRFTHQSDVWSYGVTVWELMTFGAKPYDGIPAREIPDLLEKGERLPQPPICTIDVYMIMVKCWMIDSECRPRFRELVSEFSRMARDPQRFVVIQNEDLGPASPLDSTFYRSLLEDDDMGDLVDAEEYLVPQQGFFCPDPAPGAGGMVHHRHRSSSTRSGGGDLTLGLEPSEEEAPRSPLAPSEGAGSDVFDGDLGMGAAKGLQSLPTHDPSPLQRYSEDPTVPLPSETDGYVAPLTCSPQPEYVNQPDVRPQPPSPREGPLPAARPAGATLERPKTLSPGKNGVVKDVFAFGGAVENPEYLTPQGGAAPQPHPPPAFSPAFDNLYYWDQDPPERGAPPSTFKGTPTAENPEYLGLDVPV

| SMILES | Protection Against TNF-α-Induced Cytotoxicity (cell viability) ([1]; TNF-α 0 ng/ml) | Protection Against TNF-α-Induced Cytotoxicity (cell viability) ([1]; TNF-α 0.2 ng/ml, none 41±2.3) | Protection Against TNF-α-Induced Cytotoxicity (cell viability) ([1]; TNF-α 0.5 ng/ml, none 20±1.7) | Serum TNF-α [2, 10] | Serum TNF-α [2, 11] | Serum TNF-α [2, 12] [ng/mL] | NO2- Production by Macrophages ([3]; SSI 20 uM, LPS 10 ug, 1 DAY) | NO2- Production by Macrophages ([3]; SSI 20 uM, LPS 10 ug, 2 DAY) | NO2- Production by Macrophages ([3]; SSI 20 uM, LPS 10 ug, 3 DAY) | NO2- Production by Macrophages ([3]; SSI 20 uM, no LPS, 1 DAY) | NO2- Production by Macrophages ([3]; SSI 20 uM, no LPS, 2 DAY) | NO2- Production by Macrophages ([3]; SSI 20 uM, no LPS, 3 DAY) | NO2- Production by Macrophages ([3]; SSI 50 uM, no LPS, 1 DAY) | NO2- Production by Macrophages ([3]; SSI 50 uM, no LPS, 2 DAY) | NO2- Production by Macrophages ([3]; SSI 50 uM, no LPS, 3 DAY) | blocking TNF-α induced cytotoxicity in vitro [1] | TNF-α ([6]; LPS +) [pg/mL] | TNF-α ([6]; LPS -) [pg/mL] | also measured |
| --- | --- | --- | --- | --- | --- | --- | --- | --- | --- | --- | --- | --- | --- | --- | --- | --- | --- | --- | --- |
| N#CC(=Cc1ccc([N+](=O)[O-])c(O)c1)C(=O)NCCCc1ccccc1 [SSI 19] | 100 | 42±3.7 | 18±2.6 | – | – | – | – | – | – | – | – | – | – | – | – | – | – | – | preventing TNF toxicity ([1]; 2 and 10 uM): effective; toxicity to the indicator A9 cells ([1]; 50 um, by itself): toxic |
| N#CC(=Cc1cc(O)c(O)c([N+](=O)[O-])c1)C(=O)NCCCc1ccccc1 [SSI 10] | – | – | – | 18.7 (23.2, 19.2) ng/ml | 12.9 (13.6, 12.2) ng/ml | 14.0 | 42,3 µg | 100,9 µg | 124,9 µg | 23,4 µg | 27,9 µg | 44,6 µg | 23,3 µg | 12,3 µg | 13,2 µg | – | – | – | – |
| N#CC(=Cc1ccc([N+](=O)[O-])c(O)c1)C(=O)NCCCCc1ccccc1 [SSI 23] | – | – | – | – | – | – | – | – | – | – | – | – | – | – | – | – | – | – | behaviour after dilution of the stock (made in DMSO) in PBS [4]: rapidly precipitates; solubility in aqueous solution [4]: very soluble; preventing TNF toxicity in vitro ([1]; 50um, added at the same time, 1 hour prior to, or late (2hr) after the addition of TNF): effective; mice alive after 7 days ([5]; 2.2 mg LPS/mouse, LPS alone 1 alive): 4 out of 5 mice; mice alive after 7 days ([5]; 2.5 mg LPS/mouse, LPS alone 0 alive after 1 day): 2 out of 5 mice; induced lethality ([5]; even when administered late after LPS): prevent |
| N#CC(=Cc1cc(O)c(O)c([N+](=O)[O-])c1)C(=O)O [SSI 9] | – | – | – | 17.7 (17.3, 18.2) ng/ml | 11.1 (10.5, 11.7) ng/ml | 16.0 | 71,3 µg | 112,9 µg | 136 µg | 41,8 µg | 57,2 µg | 45,1 µg | 36 µg | 51 µg | 33 µg | not | 17 | <5 | – |
| N#CC(=Cc1ccc(O)c(O)c1)C(=O)NCc1ccccc1 [SSI 16] | 100 | 41±4.3 | 23±2.0 | – | – | – | – | – | – | – | – | – | – | – | – | – | – | – | LPS induced NO production ([3]; 50 um, added 2 hours prior to LPS, 24 hours): markedly inhibit; NO production ([3]; 50 um, from an initial level of 70 uM (no LPS), 24 hours): ~30 µM; NO production ([3]; 50 um, from an initial level of 40 (10 ug/ml of LPS), 24 hours): approximately 20 uM; more active in inhibiting TNF-α cytotoxicity in vitro [1]: two to three fold; TNF toxicity (percentage of live cells) ([1]; SSI 3 50 uM, SSI 16 2 uM, SSI 17 2 and 10 uM, A9 cells with cyclohexamine, viability after 20 hours, TNF 0.2, 0.05 and 1.0 ng/ml): prevent TNF toxicity to different degrees; LPS induced toxicity in vivo ([5]; 400 ug/mouse over 7 days with 10 mice): does not prevent |
| N#CC(C#N)=Cc1cc(O)c(O)c([N+](=O)[O-])c1 [SSI 8] | 100 | 67±4.1 | 46+2.8 | – | – | – | 42,7 µg | 80,6 µg | 83,4 µg | 10,4 µg | 13,5 µg | 11,8 µg | 5,8 µg | 8,1 µg | 5,9 µg | active | <5 | <5 | NO2- production in unstimulated and LPS-stimulated periodate-activated murine macrophages ([3]; LPS (10 mg/ml)): effectively inhibited; NO2- Production by Macrophages ([3]; SSI 50uM, LPS 10 ug, 1 DAY): 6,4 µg; NO2- Production by Macrophages ([3]; SSI 50uM, LPS 10 ug, 2 DAY): 11,5 µg; NO2- Production by Macrophages ([3]; SSI 50uM, LPS 10 ug, 3 DAY): 22,4 µg; effect on EGF receptor [7]: no effect; effect on Her-2/neu receptor [8]: no effect; effect on PDGFR [9]: no effect; ability to inhibit LPS-induced production of TNF-α by activated murine peritoneal macrophages in vitro ([6]; among the tyrphostins tested): most potent |
